Biological target: T1, β-glucuronidase (GUS) (Escherichia coli, UniProt P05804)
T1 construct: gene uidA
Assay: fluorescent 4-MUG hydrolysis assay with purchased E. coli GUS; Lineweaver-Burk plots
Type: biochemical

T1 sequence (P05804 whole entry): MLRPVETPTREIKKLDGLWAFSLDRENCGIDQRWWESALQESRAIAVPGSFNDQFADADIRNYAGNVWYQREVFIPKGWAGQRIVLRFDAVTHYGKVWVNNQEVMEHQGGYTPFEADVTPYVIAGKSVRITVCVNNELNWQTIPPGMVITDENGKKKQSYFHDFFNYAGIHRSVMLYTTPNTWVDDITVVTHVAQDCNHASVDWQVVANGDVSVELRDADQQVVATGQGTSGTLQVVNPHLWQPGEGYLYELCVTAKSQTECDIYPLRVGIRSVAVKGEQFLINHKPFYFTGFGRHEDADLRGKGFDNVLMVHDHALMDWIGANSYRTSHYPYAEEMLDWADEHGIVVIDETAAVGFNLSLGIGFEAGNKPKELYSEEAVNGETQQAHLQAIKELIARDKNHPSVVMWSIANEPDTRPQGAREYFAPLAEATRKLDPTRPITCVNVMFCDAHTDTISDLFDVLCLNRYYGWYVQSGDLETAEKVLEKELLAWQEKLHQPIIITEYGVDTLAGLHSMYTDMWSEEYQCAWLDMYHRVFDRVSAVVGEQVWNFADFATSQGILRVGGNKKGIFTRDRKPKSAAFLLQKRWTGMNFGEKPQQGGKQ

COc1ccc2cc3[n+](cc2c1OC)CCc1cc2c(cc1-3)OCO2 [Berberine, 9,10-dimethoxy-5,6-dihydro-(1,3)dioxolo (4,5-g)isoquinolino (3,2-a)isoquinolin-7-ium]
IC50: 54 ± 5.1 µM
